From publication PMC10434152, “Effectors of the Type VI Secretion System Have the Potential to Be Modified into Antimicrobial Peptides” (Microbiology Spectrum, 2023)
Like-named read-outs stand apart in the source and are kept apart here. Residues, ends and D or L forms follow the SMILES beside them.

Tests used:
S. aureus ATCC 25923 = assay: MIC and MBC against laboratory strain S. aureus ATCC 25923; assay type: cell-based, Staphylococcus aureus; conditions: for MBC: 10 μL from MIC put into Mueller-Hinton agar medium, 24 h; for MIC: 37°C, 18 to 20 h
Procedure: (§1) MIC was measured according to Luna et al. ([25]) as described previously. Briefly, 100 μL of RPMI 1640 medium containing drugs at various concentrations was cultured with 100 μL of bacteria at 1 × 10^6 CFU/mL in 96-well plates at 37°C for 18 to 20 h. Wells containing 100 μL of bacteria at 1 × 10^6 CFU/mL and 100 μL medium were used as positive controls. Wells containing 100 μL drug and 100 μL medium were used as drug-negative controls, and wells containing 200 μL medium were used as negative controls.
(§2) The MBC, in which a combination of 10 μL from MIC was put into Mueller-Hinton agar medium and incubated for 24 h, was the first one in which […].

S. aureus USA200 [1] = assay: Checkerboard combination with ciprofloxacin; assay type: cell-based; conditions: in combination with ciprofloxacin
E. coli ATCC 25922 = assay: MIC and MBC against laboratory strain E. coli ATCC 25922; assay type: cell-based, Escherichia coli; conditions: for MBC: 10 μL from MIC put into Mueller-Hinton agar medium, 24 h; for MIC: 37°C, 18 to 20 h
Procedure: as §1, §2

ExPEC RS218 = assay: MIC and MBC against MDR bacteria; assay type: cell-based, Escherichia coli; conditions: for MBC: Mueller-Hinton agar, 24 h; for MIC: RPMI 1640, 37°C, 18 to 20 h
Procedure: as §1, §2

ExPEC PCN033 = assay: MIC and MBC against MDR bacteria; assay type: cell-based, Escherichia coli; conditions: for MBC: Mueller-Hinton agar, 24 h; for MIC: RPMI 1640, 37°C, 18 to 20 h
Procedure: as §1, §2

S. aureus ATCC 43300 = assay: MIC and MBC against MDR bacteria; assay type: cell-based; conditions: for MBC: Mueller-Hinton agar, 24 h; for MIC: RPMI 1640, 37°C, 18 to 20 h
Procedure: as §1, §2

Streptococcus SC19 = assay: MIC and MBC against MDR bacteria; assay type: cell-based; conditions: for MBC: Mueller-Hinton agar, 24 h; for MIC: RPMI 1640, 37°C, 18 to 20 h
Procedure: as §1, §2

S. aureus USA200 [2] = assay: MIC and MBC against MDR bacteria; assay type: cell-based; conditions: for MBC: Mueller-Hinton agar, 24 h
Procedure: as §1, §2

Bacillus subtilis NCD-2 = assay: MIC and MBC against MDR bacteria; assay type: cell-based; conditions: for MBC: Mueller-Hinton agar, 24 h; for MIC: RPMI 1640, 37°C, 18 to 20 h
Procedure: as §1, §2

S. aureus 1802043 = assay: MIC and MBC against MDR bacteria; assay type: cell-based; conditions: for MBC: Mueller-Hinton agar, 24 h; for MIC: RPMI 1640, 37°C, 18 to 20 h
Procedure: as §1, §2

S. aureus USA300 = assay: MIC and MBC against MDR bacteria; assay type: cell-based; conditions: for MBC: Mueller-Hinton agar, 24 h; for MIC: RPMI 1640, 37°C, 18 to 20 h
Procedure: as §1, §2

Sheep red blood cells = assay: Hemolytic activity; assay type: cell-based; conditions: 4 μg/mL; 10% SRBCs, 37°C, 6 h, absorbance 540 nm, triplicate
Procedure: Sheep red blood cells (SRBCs) were used to detect hemolytic activity according to a previous method. Briefly, fresh SRBCs were washed with PBS, and a suspension of 10% SRBCs was mixed with solutions of Tsap or melittin at various concentrations. After incubation at 37°C for 6 h, the cells were removed by centrifugation at 800 × g for 10 min, and the absorbance of the supernatant at 540 nm was measured. Culture supernatant from cells that had been stimulated with 1% Triton X-100 was used as a positive control, and culture supernatant from cells that had been incubated with PBS was used as a negative control. Each measurement was taken in triplicate.

S. aureus USA200 [3] = assay: S. aureus-infected mouse model, survival; assay type: in vivo; conditions: BALB/c mice, n = 10, 1 × 10^7 bacteria i.p.; 20 mg/kg i.p. 6 h after infection; survival after 7 days
Procedure: To determine the drug protection rate fraction, S. aureus USA200 that had been cultured overnight was cultured in LB broth to an OD600 of 0.5, washed three times, and resuspended in PBS. Forty female BALB/c mice (18 ± 2 g each) were divided randomly into four groups. All four groups (n = 10) of mice were injected intraperitoneally with 1 × 10^7 bacteria. Six hours after infection, the animals in the four groups received 20 mg/kg Tsap-1, 20 mg/kg ciprofloxacin, 10 mg/kg Tsap-1, and 10 mg/kg ciprofloxacin or an equal amount of PBS by intraperitoneal injection. The survival rate of the mice was recorded after 7 days.

S. aureus USA200 [4] = assay: Mouse tissue load experiment; assay type: in vivo; conditions: BALB/c mice, five per group, 20 mg/kg i.p., tissues (liver, spleen, lung, kidney) harvested 12 h later, CFU
Procedure: For the mouse tissue load experiment, the bacteria were manipulated as described previously. Twenty female BALB/c mice (18 ± 2 g each) were divided randomly into four groups of five mice each. The animals in the four groups were injected intraperitoneally with 20 mg/kg Tsap-1 AMP, 20 mg/kg ciprofloxacin, 10 mg/kg Tsap-1, and 10 mg/kg ciprofloxacin or an equal amount of PBS. Twelve hours later, the mice were anesthetized with ether and perfused with PBS, and their livers, spleens, lungs, and kidneys were harvested. The tissues were then homogenized using a tissue grinder. Then, 10× serial dilutions of the homogenates were prepared and plated onto LB plates, and the CFUs were counted.

[5] = RPMI 1640 medium, 1 × 10^6 CFU/mL, 96-well plates
[6] = RPMI supplemented with Glycine (0.5 mM)
[7] = RPMI supplemented with L-Arginine (0.5 mM)
[8] = RPMI supplemented with L-Histidine (0.5 mM)
[9] = RPMI supplemented with L-Tryptophan (0.125 mM)
[10] = RPMI supplemented with Leucine (1 mM)
[11] = RPMI supplemented with nonessential amino acid solution
[12] = S. aureus USA200, RPMI 1640, 37°C, 18 to 20 h

Compound | MBC (S. aureus ATCC 25923) | MIC (S. aureus ATCC 25923; [5]) | MIC (S. aureus ATCC 25923; [6]) | MIC (S. aureus ATCC 25923; [7]) | MIC (S. aureus ATCC 25923; [8]) | MIC (S. aureus ATCC 25923; [9]) | MIC (S. aureus ATCC 25923; [10]) | MIC (S. aureus ATCC 25923; [11]) | fractional inhibitory concentration index (FICI) (S. aureus USA200 [1]) | MBC (E. coli ATCC 25922) | MIC (E. coli ATCC 25922; [5]) | MIC (E. coli ATCC 25922; [6]) | MIC (E. coli ATCC 25922; [7]) | MIC (E. coli ATCC 25922; [8]) | MIC (E. coli ATCC 25922; [9]) | MIC (E. coli ATCC 25922; [10]) | MIC (E. coli ATCC 25922; [11]) | MBC (ExPEC RS218) | MIC (ExPEC RS218) | MBC (ExPEC PCN033) | further results
CC[C@H](C)[C@H](NC(=O)[C@H](CCSC)NC(=O)[C@H](CCCCN)NC(=O)[C@H](CCCCN)NC(=O)[C@H](CC(C)C)NC(=O)[C@H](C)NC(=O)[C@H](CCCCN)NC(=O)[C@@H](N)Cc1c[nH]c2ccccc12)C(=O)N[C@@H](CCSC)C(=O)N[C@@H](CCCCN)C(=O)N[C@H](C(=O)O)[C@@H](C)O [Tsap2] (H-WKALKKMIMKT-OH) | 16 mg/L | 64 mg/L | 64 mg/L | 16 mg/L | 64 mg/L | 64 mg/L | 64 mg/L | 64 mg/L | 1.125 | 32 mg/L | 128 mg/L | 64 mg/L | 64 mg/L | 128 mg/L | 128 mg/L | 128 mg/L | 64 mg/L | 64 mg/L | 256 mg/L | 64 mg/L | MIC (ExPEC PCN033): 256 mg/L; MBC (S. aureus ATCC 43300): 8 mg/L; MIC (S. aureus ATCC 43300): 16 mg/L; MBC (Streptococcus SC19): 8 mg/L; MIC (Streptococcus SC19): 16 mg/L; MBC (S. aureus USA200 [2]; S. aureus USA200): 64 mg/L; MIC (S. aureus USA200 [2]; [12]): 512 mg/L; MBC (Bacillus subtilis NCD-2): 8 mg/L; MIC (Bacillus subtilis NCD-2): 16 mg/L; MBC (S. aureus 1802043): 8 mg/L; MIC (S. aureus 1802043): 16 mg/L; MBC (S. aureus USA300): 8 mg/L; MIC (S. aureus USA300): 16 mg/L
CC[C@H](C)[C@H](NC(=O)[C@H](CCCCN)NC(=O)[C@H](CCSC)NC(=O)[C@@H](NC(=O)[C@H](CCSC)NC(=O)[C@H](CCCCN)NC(=O)[C@H](CCCCN)NC(=O)[C@H](CC(C)C)NC(=O)[C@H](C)NC(=O)[C@H](CCCCN)NC(=O)[C@@H](N)Cc1c[nH]c2ccccc12)[C@@H](C)CC)C(=O)O [Tsap3] (H-WKALKKMIMKI-OH) | 8 mg/L | 16 mg/L | 16 mg/L | 16 mg/L | 16 mg/L | 16 mg/L | 16 mg/L | 16 mg/L | 1.25 | 4 mg/L | 32 mg/L | 16 mg/L | 16 mg/L | 32 mg/L | 32 mg/L | 32 mg/L | 16 mg/L | 32 mg/L | 64 mg/L | 32 mg/L | MIC (ExPEC PCN033): 64 mg/L; MBC (S. aureus ATCC 43300): 4 mg/L; MIC (S. aureus ATCC 43300): 16 mg/L; MBC (Streptococcus SC19): 4 mg/L; MIC (Streptococcus SC19): 16 mg/L; MBC (S. aureus USA200 [2]; S. aureus USA200): 16 mg/L; MIC (S. aureus USA200 [2]; [12]): 64 mg/L; MBC (Bacillus subtilis NCD-2): 4 mg/L; MIC (Bacillus subtilis NCD-2): 16 mg/L; MBC (S. aureus 1802043): 2 mg/L; MIC (S. aureus 1802043): 16 mg/L; MBC (S. aureus USA300): 2 mg/L; MIC (S. aureus USA300): 16 mg/L
melittin |  |  |  |  |  |  |  |  |  |  |  |  |  |  |  |  |  |  |  |  | hemolysis activity (Sheep red blood cells): complete hemolysis activity
O=C(O)c1cn(C2CC2)c2cc(N3CCNCC3)c(F)cc2c1=O [ciprofloxacin] |  |  |  |  |  |  |  |  |  |  |  |  |  |  |  |  |  |  |  |  | protection (S. aureus USA200 [3]): 60%; reduction of bacterial loads in all tissues compared with untreated group (S. aureus USA200 [4]): about 32 times; MIC (S. aureus USA200 [2]; Staphylococcus aureus, S. aureus USA200, stated in text, read-out: MIC): 16 mg/L
CC[C@H](C)[C@H](NC(=O)[C@H](CCSC)NC(=O)[C@H](CCCCN)NC(=O)[C@H](CCCCN)NC(=O)[C@H](CC(C)C)NC(=O)[C@H](CCCCN)NC(=O)[C@H](CCCCN)NC(=O)[C@@H](N)Cc1c[nH]c2ccccc12)C(=O)N[C@@H](CCCCN)C(=O)N[C@@H](CCCCN)C(=O)O [Tsap1] (H-WKKLKKMIKK-OH) | 4 mg/L | 16 mg/L | 16 mg/L | 16 mg/L | 16 mg/L | 16 mg/L | 16 mg/L | 16 mg/L | 0.5 | 4 mg/L | 32 mg/L | 16 mg/L | 16 mg/L | 32 mg/L | 32 mg/L | 32 mg/L | 16 mg/L | 32 mg/L | 64 mg/L | 32 mg/L | MIC (ExPEC PCN033): 64 mg/L; MBC (S. aureus ATCC 43300): 4 mg/L; MIC (S. aureus ATCC 43300): 16 mg/L; MBC (Streptococcus SC19): 4 mg/L; MIC (Streptococcus SC19): 16 mg/L; MBC (S. aureus USA200 [2]; S. aureus USA200): 8 mg/L; MIC (S. aureus USA200 [2]; [12]): 64 mg/L; MBC (Bacillus subtilis NCD-2): 4 mg/L; MIC (Bacillus subtilis NCD-2): 16 mg/L; MBC (S. aureus 1802043): 2 mg/L; MIC (S. aureus 1802043): 16 mg/L; MBC (S. aureus USA300): 2 mg/L; MIC (S. aureus USA300): 16 mg/L
